# ChEMBL document CHEMBL1145819 (J Med Chem, 2003)
# Where “and” joins values, the source holds several entries; their conditions need not be identical. Equal values may be shown once.
# Tests used:
# [1] = biological target: T1, 5-hydroxytryptamine receptor 5A (Mus musculus, UniProt P30966); assay: Binding affinity towards murine 5-hydroxytryptamine 5A receptor
# [2] = biological target: T2, 5-hydroxytryptamine receptor 6 (Homo sapiens, UniProt P50406)
# [3] = biological target: T3, 5-hydroxytryptamine receptor 5A (Homo sapiens, UniProt P47898); assay: Binding affinity towards human 5-hydroxytryptamine 5A receptor was evaluated using [3H]-5-CT as radioligand
# [4] = biological target: T4, 5-hydroxytryptamine receptor 7 (Homo sapiens, UniProt P34969)
# [5] = biological target: T3, 5-hydroxytryptamine receptor 5A; assay: Binding affinity towards human 5-hydroxytryptamine 5A receptor
# [6] = biological target: T2, 5-hydroxytryptamine receptor 6; assay: Binding affinity towards human 5-hydroxytryptamine 6 receptor was evaluated using [3H]-LSD as radioligand
# [7] = biological target: T4, 5-hydroxytryptamine receptor 7; assay: Binding affinity towards human 5-hydroxytryptamine 7 receptor
# [8] = biological target: T5, Alpha-1A adrenergic receptor (Homo sapiens, UniProt P35348); assay: Binding affinity towards alpha-1-adrenergic receptor
# T5 sequence (P35348 whole entry): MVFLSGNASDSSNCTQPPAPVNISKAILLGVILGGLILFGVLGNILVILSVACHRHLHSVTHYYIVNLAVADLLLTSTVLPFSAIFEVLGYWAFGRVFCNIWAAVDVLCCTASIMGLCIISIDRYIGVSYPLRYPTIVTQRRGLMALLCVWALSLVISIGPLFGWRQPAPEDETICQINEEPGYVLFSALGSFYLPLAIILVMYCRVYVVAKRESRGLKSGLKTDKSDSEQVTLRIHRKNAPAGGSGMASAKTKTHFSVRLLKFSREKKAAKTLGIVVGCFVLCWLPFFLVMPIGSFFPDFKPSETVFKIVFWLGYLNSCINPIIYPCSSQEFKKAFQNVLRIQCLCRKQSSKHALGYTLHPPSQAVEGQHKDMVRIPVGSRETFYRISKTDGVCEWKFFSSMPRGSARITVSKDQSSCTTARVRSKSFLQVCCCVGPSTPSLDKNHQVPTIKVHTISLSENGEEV
# [9] = biological target: 5-hydroxytryptamine receptor 2A (Homo sapiens, UniProt P28223); assay: Binding affinity towards 5-hydroxytryptamine 2A receptor
# [10] = biological target: T6, Alpha-2A adrenergic receptor (Homo sapiens, UniProt P08913); assay: Binding affinity towards Alpha-2 adrenergic receptor
# T6 sequence (P08913 whole entry): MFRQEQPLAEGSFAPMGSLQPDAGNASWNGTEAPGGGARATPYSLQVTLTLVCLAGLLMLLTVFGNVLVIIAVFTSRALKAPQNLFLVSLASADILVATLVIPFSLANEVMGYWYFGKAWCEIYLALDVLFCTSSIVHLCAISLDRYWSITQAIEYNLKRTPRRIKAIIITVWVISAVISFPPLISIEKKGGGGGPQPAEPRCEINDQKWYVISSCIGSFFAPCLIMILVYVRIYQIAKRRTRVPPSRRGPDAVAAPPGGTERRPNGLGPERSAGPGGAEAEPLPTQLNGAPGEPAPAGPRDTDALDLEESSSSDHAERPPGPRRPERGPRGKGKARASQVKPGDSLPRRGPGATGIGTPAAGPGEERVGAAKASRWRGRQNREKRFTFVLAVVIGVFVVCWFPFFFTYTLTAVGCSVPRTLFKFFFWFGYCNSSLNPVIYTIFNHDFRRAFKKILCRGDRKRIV
# [11] = biological target: Serotonin 2 (5-HT2) receptor (Homo sapiens, UniProt P41595+P28223+P28335); assay: Binding affinity towards 5-HT2 receptor; type: protein assay
# [12] = biological target: T3, 5-hydroxytryptamine receptor 5A; assay: Binding affinity towards 5-hydroxytryptamine 5A receptor
# [13] = Antagonistoc activity of compound for 5-CT-mediated adenylate cyclase activity; type: functional
# [14] = biological target: 5-hydroxytryptamine receptor 7 (Rattus norvegicus, UniProt P32305); assay: Binding affinity towards rat 5-hydroxytryptamine 7 receptor
# [15] = Antagonistic activity of compound in 5-HT induced cAMP accumulation; type: functional
# [16] = biological target: T1, 5-hydroxytryptamine receptor 5A; assay: Binding affinity towards mouse 5-hydroxytryptamine 5A receptor was evaluated using [3H]LSD as radioligand
# [17] = biological target: T2, 5-hydroxytryptamine receptor 6; assay: Binding affinity towards human 5-hydroxytryptamine 6 receptor was evaluated using [125I]-2-iodo LSD as radioligand
# [18] = Antagonistic activity of compound in cAMP accumulation was evaluated; type: functional
# [19] = biological target: T2, 5-hydroxytryptamine receptor 6; assay: Antagonistic activity towards 5-hydroxytryptamine 6 receptor; type: functional; conditions: read-out: pA2 (converted)
# [20] = biological target: T4, 5-hydroxytryptamine receptor 7; remark: listed apart in the source
# [21] = biological target: T2, 5-hydroxytryptamine receptor 6; assay: Binding affinity towards human 5-hydroxytryptamine 6 receptor
# [22] = biological target: T1, 5-hydroxytryptamine receptor 5A; assay: Binding affinity towards mouse 5-hydroxytryptamine 5A receptor was evaluated using [3H]- LSD as radioligand
# [23] = biological target: T1, 5-hydroxytryptamine receptor 5A; assay: Binding affinity towards mouse 5-hydroxytryptamine 5A receptor
# [24] = biological target: T2, 5-hydroxytryptamine receptor 6; assay: Antagonistic activity towards 5-hydroxytryptamine 6 receptor was evaluated in cAMP assay; type: functional
# [25] = biological target: T7, 5-hydroxytryptamine receptor 3A (Homo sapiens, UniProt P46098); assay: Binding affinity towards 5-hydroxytryptamine 3 receptor
# T7 sequence (P46098 whole entry): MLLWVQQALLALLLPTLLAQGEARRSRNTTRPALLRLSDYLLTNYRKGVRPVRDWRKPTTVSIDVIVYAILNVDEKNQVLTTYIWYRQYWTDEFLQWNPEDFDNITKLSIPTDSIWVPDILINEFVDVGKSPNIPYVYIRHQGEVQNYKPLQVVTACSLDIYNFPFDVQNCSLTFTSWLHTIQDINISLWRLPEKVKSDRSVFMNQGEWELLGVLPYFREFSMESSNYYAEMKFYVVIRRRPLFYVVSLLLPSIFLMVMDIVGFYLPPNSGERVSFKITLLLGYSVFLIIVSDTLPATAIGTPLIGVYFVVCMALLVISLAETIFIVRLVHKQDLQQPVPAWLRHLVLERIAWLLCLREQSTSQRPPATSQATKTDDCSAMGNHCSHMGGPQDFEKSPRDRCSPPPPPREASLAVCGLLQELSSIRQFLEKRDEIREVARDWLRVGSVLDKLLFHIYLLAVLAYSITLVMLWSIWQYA
# T3 sequence (P47898 whole entry): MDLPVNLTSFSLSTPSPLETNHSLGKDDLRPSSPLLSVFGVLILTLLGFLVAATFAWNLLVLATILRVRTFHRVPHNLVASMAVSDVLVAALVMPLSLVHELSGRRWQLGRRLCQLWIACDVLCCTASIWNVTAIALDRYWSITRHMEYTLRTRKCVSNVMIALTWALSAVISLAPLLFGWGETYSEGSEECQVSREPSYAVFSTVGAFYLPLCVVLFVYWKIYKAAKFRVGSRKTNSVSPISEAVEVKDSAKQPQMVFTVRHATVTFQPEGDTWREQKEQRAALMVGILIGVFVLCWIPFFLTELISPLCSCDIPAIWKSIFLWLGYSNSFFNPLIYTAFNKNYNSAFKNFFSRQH
# Sequence of 5-hydroxytryptamine receptor 7 (Rattus norvegicus, UniProt P32305) (P32305 whole entry): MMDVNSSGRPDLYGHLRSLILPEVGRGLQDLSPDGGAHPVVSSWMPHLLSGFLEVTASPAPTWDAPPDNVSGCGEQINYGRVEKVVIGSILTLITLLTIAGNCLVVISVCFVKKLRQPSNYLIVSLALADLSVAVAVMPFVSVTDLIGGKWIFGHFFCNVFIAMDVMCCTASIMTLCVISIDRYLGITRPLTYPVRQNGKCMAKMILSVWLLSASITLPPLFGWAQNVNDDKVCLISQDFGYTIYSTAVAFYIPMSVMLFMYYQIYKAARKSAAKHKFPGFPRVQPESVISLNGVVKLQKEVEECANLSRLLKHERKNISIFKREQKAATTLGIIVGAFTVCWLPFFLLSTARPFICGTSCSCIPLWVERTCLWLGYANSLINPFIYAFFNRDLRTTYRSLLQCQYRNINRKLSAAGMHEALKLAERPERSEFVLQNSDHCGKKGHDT
# T4 sequence (P34969 whole entry): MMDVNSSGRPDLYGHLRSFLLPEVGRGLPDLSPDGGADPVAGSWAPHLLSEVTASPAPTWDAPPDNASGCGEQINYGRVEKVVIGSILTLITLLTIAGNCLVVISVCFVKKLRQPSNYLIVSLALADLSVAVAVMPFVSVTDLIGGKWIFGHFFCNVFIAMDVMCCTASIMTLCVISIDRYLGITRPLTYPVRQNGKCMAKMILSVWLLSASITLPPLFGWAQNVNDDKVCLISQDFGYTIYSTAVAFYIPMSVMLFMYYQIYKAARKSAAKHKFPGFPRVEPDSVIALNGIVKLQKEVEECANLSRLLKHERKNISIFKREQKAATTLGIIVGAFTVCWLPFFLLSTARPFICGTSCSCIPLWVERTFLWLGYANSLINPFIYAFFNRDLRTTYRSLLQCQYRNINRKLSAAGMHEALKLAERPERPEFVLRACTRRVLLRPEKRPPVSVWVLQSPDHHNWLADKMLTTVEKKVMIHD
# T1 sequence (P30966 whole entry): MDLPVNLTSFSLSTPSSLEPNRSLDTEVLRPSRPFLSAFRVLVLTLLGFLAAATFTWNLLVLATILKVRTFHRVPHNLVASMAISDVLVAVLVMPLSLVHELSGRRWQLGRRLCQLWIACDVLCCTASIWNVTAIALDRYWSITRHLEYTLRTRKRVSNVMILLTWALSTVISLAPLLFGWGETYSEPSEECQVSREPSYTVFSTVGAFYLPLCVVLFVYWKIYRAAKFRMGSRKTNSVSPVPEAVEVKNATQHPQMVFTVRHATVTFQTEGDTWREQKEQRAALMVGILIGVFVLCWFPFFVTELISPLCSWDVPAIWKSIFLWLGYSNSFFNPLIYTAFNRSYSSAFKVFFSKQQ
# T2 sequence (P50406 whole entry): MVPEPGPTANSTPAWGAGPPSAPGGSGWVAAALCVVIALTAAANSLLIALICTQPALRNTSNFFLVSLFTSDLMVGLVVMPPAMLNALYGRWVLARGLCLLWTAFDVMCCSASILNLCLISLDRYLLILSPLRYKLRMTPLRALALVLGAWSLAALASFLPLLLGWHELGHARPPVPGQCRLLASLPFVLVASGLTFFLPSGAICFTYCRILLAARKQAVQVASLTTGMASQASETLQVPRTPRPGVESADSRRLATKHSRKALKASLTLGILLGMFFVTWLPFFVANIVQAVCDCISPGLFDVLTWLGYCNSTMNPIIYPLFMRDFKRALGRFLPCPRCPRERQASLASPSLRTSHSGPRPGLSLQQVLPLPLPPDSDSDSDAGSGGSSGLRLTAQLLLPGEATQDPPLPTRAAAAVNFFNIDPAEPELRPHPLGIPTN
# Sequence of 5-hydroxytryptamine receptor 2A (P28223 whole entry): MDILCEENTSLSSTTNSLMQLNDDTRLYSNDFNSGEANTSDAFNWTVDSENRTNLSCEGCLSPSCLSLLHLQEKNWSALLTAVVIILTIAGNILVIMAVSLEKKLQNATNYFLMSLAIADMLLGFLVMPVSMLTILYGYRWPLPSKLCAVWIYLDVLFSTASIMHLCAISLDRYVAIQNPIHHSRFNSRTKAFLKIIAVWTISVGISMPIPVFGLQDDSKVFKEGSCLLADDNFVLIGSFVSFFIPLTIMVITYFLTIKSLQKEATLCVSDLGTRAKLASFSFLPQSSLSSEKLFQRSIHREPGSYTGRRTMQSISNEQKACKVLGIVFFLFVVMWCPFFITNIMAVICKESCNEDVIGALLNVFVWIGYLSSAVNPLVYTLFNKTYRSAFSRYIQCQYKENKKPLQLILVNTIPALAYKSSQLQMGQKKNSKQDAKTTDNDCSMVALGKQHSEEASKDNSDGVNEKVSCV
smiles,measurement,setting,value
Cn1c2c(c3ccccc31)CNCC2,Ki,[1],5300 nM
Oc1ccccc1N1CCNCC1,Ki,[1],215 nM
Nc1ccc(S(=O)(=O)Nc2cc(Br)cc3[nH]ccc23)cc1,Ki,[2],50 nM
CNS(=O)(=O)c1ccc2[nH]cc(CCN(C)C)c2c1,Ki,[3],5000 nM
same,Ki,[4],950 nM
same,Ki,[5],5000 nM
same,Ki,[6],2600 nM
CN1CCc2ccc3c4c2[C@H]1Cc1cccc(c1-4)[C@@H]3N,Ki,[7],18 nM
same,Ki,[8],373 nM
same,Ki,[9],469 nM
same,Ki,[10],92.8 nM
CN1CCc2ccc3c4c2[C@H]1Cc1cccc(c1-4)[C@H]3N,Ki,[7],13.4 nM
O=C1Nc2cccc3c2C1(CCCCN1CC=C(c2ccccc2)CC1)CCC3 (stereo not drawn),Ki,[11],98 nM
COc1cccc2c(CCN(C)C)c[nH]c12,Ki,[2],19600 nM
Cc1ccc(S(=O)(=O)n2cc3c4c(cccc42)[C@H](O)[C@@H](N)C3)cc1,Ki,[2],7.2 nM
O=C(CCCN1CCC2(CC1)C(=O)NCN2c1ccccc1)c1ccc(F)cc1 [SPIPERONE],Ki,[3],63000 nM
same,Ki,[2],1590 nM
same,Ki,[6],1590 nM
CN1CCN(C2=Nc3cc(Cl)ccc3Nc3ccccc32)CC1 [CLOZAPINE],Ki,[3],1000 nM
Cl.O=S(=O)(c1ccc2cc[nH]c2c1)N1CCC[C@@H]1CCN1CCC(Oc2ccc(Cl)cc2)CC1,Ki,[12],168 nM
same,pA2,[13],8.1
CC1CCCN(CCC(C)N(C)S(=O)(=O)c2cccc3ccccc23)C1 (stereo not drawn),Ki,[7],32 nM and 125 nM and 65 nM
O=C1Nc2cccc3c2C1(CCCN1CCN(c2ccccc2)CC1)CCC3 (stereo not drawn),Ki,[11],16 nM
CN1C[C@@H](NS(=O)(=O)N(C)C)C[C@@H]2c3cccc4[nH]cc(c34)C[C@H]21 [DISULERGINE],Ki,[7],18 nM
same,Ki,[14]; read-out: Ki,21 nM
CN(C)CC/C=C1/c2ccccc2Sc2ccc(Cl)cc21 [CHLORPROTHIXENE],Ki,[2],3 nM
same,Ki,[14]; read-out: Ki,5.6 nM
CNc1cc(NS(=O)(=O)c2ccc(N)cc2)nc(NC)n1,pA2,[15],6.75
O=C(c1ccc(F)cc1)C1CCN(CCn2c(=O)[nH]c3ccccc3c2=O)CC1 [KETANSERIN],Ki,[3],20000 nM
same,Ki,[5],20000 nM
CN1CCc2cccc3c2[C@H]1Cc1cccc(-c2ccccc2)c1-3,Ki,[7],9.78 nM
CN1CCN(C2=Nc3ccccc3Oc3ccc(Cl)cc32)CC1 [LOXAPINE],Ki,[2],15 nM
CO[C@@]1(C)c2cccc3c2-c2c1ccc1c2[C@@H](C3)N(C)CC1,Ki,[7],1.1 nM
CNc1cc(NC)cc(NS(=O)(=O)c2ccc(N)cc2)c1,Ki,[2],200 nM
CNC(=O)Cn1c2c(c3ccccc31)CCN(CCCCC13CCCc4cccc(c41)NC3=O)C2 (stereo not drawn),Ki,[11],> 1000 nM
same,Ki,[7],4 nM
COc1ccc2c(CCN(C)C)c[nH]c2c1,Ki,[2],8000 nM
CCc1c(C)[nH]c2c1C(=O)C(CN1CCOCC1)CC2 (stereo not drawn) [MOLINDONE],Ki,[7],265 nM
COc1ccc2c(c1)c1c(n2S(=O)(=O)c2ccccc2)CCCC1CN(C)C (stereo not drawn),Ki,[2],1.5 nM
COc1cc(N)c(Cl)cc1C(=O)NC1CN2CCC1CC2 (stereo not drawn) [ZACOPRIDE],Ki,[5],16000 nM
NCCc1c[nH]c2ccc(C(N)=O)cc12,Ki,[3],20 nM
same,Ki,[5],20 nM
same,Ki,[6],720 nM
c1ccc2nc(N3CCNCC3)ccc2c1 [QUIPAZINE],Ki,[1],> 10000 nM
same,Ki,[16],> 10000 nM
CCCN(CCC)C1CCc2cccc(O)c2C1 (stereo not drawn) [8-OH-DPAT],Ki,[14],150 nM
same,Ki,[6],> 10000 nM
Clc1cccc(N2CCNCC2)c1 [CHLOROPHENYLPIPERAZINE],Ki,[1],8700 nM
same,Ki,[17],2300 nM
same,Ki,[16],8700 nM
COc1ccc(NS(=O)(=O)c2sc3ccc(Cl)cc3c2C)cc1N1CCN(C)CC1,pKb,[18],8.5
OCCN1CCN(CCCN2c3ccccc3Sc3ccc(Cl)cc32)CC1 [PERPHENAZINE],Ki,[7],23 nM
CN1C[C@H](CNC(=O)OCc2ccccc2)C[C@@H]2c3cccc4[nH]cc(c34)C[C@H]21,Ki,[14]; read-out: Ki,60 nM
same,Ki,[4],6.4 nM
same,Ki,[6],400 nM
CN(C)Cc1cn(S(=O)(=O)c2ccc(N)cc2)c2ccccc12,Ki,[2],6.9 nM
CO[C@H]1c2cccc3c2c(cn3S(=O)(=O)c2ccc(C)cc2)C[C@@H]1N,Ki,[2],130 nM
Cc1c(N=C2NCCN2)cccc1-c1ccccc1,Ki,[7],16 nM
same,Ki,[8],200 nM
same,Ki,[10],19 nM
O=S(=O)(c1cccc2ccccc12)n1ccc2ccc(N3CCN4CCCC4C3)cc21 (stereo not drawn),Ki,[2],0.7 nM
COc1ccc2c(c1)c(CCN(C)C)cn2S(=O)(=O)c1ccccc1,Ki,[2],2.1 nM
same,Kb,[19],1.32 nM
CC1CCN(CC[C@H]2CCCN2S(=O)(=O)c2cccc(O)c2)CC1,pKb,[20],8.3
O=c1[nH]c2ccccc2n1C1CCN(CCCC(c2ccc(F)cc2)c2ccc(F)cc2)CC1 [PIMOZIDE],Ki,[2],71 nM
CNc1cc(Br)cc(NS(=O)(=O)c2ccc(N)cc2)c1,Ki,[2],20 nM
CNc1cc(NS(=O)(=O)c2ccc(N)cc2)cc(NC)n1,Ki,[21],12 nM
same,pA2,[15],7.1
Nc1ccc(S(=O)(=O)Nc2cc(N)nc(Br)c2)cc1,Ki,[2],55 nM
COc1ccc2c(c1)c(CCN(C)C)cn2S(=O)(=O)c1ccc(N)cc1,Ki,[2],2 nM
COc1ccc(NS(=O)(=O)c2ccc(Br)cc2)cc1N1CCN(C)CC1,pKb,[18],7.8
CNc1cc(NS(=O)(=O)c2ccc(N)cc2)nc(N)n1,Ki,[2],1000 nM
Cc1[nH]c2ccc(O)cc2c1CCN,Ki,[17],400 nM
same,Ki,[5],> 10000 nM
same,Ki,[16],> 10000 nM
c1ccc2c(N3CCNCC3)cccc2c1,Ki,[22],40 nM
c1ccc2c3c([nH]c2c1)CNCC3 [TRYPTOLINE],Ki,[2],> 5000 nM
same,Ki,[23],2470 nM
Cc1cn(S(=O)(=O)c2ccc(N)cc2)c2ccccc12,Ki,[2],12 nM
same,IC50,[24],300 nM
same,Kb,[24]; read-out: pA2 (converted),100 nM
COc1ccc(NS(=O)(=O)c2sc3ccc(Cl)cc3c2C)cc1N1CCN2CCC[C@H]2C1,pKb,[18],7.7
Cc1cccc(C#N)c1-c1cccc2c1-c1cccc3c1[C@@H](C2)N(C)CC3,Ki,[7],20.8 nM and 3.79 nM
CN(C)Cc1cn(S(=O)(=O)c2ccccc2)c2ccccc12,Ki,[2],3.1 nM
same,IC50,[24],800 nM
C1CCN2CCNCC2C1 (stereo not drawn),Ki,[2],5 nM
C[N+](C)(C)CCc1c[nH]c2ccc(O)cc12,Ki,[5],> 10000 nM
COc1ccc2[nH]c(C)c(CCN)c2c1,Ki,[2],80 nM
same,Ki,[25],> 10000 nM
CN1CCN(C2=Nc3ccccc3Nc3sccc32)CC1,Ki,[14]; read-out: Ki,104 nM
CO[C@]1(C)c2cccc3c2-c2c1ccc1c2[C@@H](C3)N(C)CC1,Ki,[7],1.1 nM
COc1ccc2c(c1)c(CCN(C)C)cn2Cc1ccccc1,Ki,[2],6.5 nM
Cc1cccc(S(=O)(=O)N2CCC[C@@H]2CCN2CCC(C)CC2)c1 [SB-258741],Ki,[7],3 nM
COc1cc(CC(C)N)c(OC)cc1I (stereo not drawn),Ki,[5],> 1000 nM
CN(C)CCc1cn(S(=O)(=O)c2ccccc2)c2ccccc12,Ki,[2],4.1 nM
COc1ccc2c(c1)c(CCN(C)C)cn2-c1ccccc1,Ki,[2],33 nM
CN(C)CCc1cn(S(=O)(=O)c2ccc(N)cc2)c2ccccc12,Ki,[2],0.8 nM
COc1cccc2[nH]cc(CCN(C)C)c12,Ki,[2],154 nM
